We go through ten compounds from US8980323B2, “Hydrophilic matrix containing poorly water-soluble compound and method for producing the same” (FUJIFILM Corporation, priority 2006, dated 2015).

Data set [1] can be described thus: Stereo-microscopic observation of drug-containing hydrophilic matrix films and gels (finely-dispersed state / precipitation). The note with it: gelatin film cast from HFIP, stereo microscope; for State of drug in gelatin film, Drug/gelatin mass proportion 0.1%: drug/gelatin 0.1%; for State of drug in gelatin film, Drug/gelatin mass proportion 1.0%: drug/gelatin 1.0%; for State of drug in gelatin film, Drug/gelatin mass proportion 5.0%: drug/gelatin 5.0%. The class given is physicochemical. The arrangement: key: ∘: contained in a finely-dispersed state; Δ: partially precipitated. The procedure:
The term “in a finely-dispersed state” used herein refers to a condition in which the contained poorly water-soluble drug, which is a compound of a size that cannot be detected with a stereo microscope (MZ16A produced by Leica), is uniformly dispersed in a matrix, or a condition in which such a drug is in a molecular dispersion state in a matrix.
Paclitaxel (produced by LCL laboratories) was used as a poorly water-soluble compound. […] 1,1,1,3,3,3-hexafluoro-2-propanol solution (HFIP; 200 μL) containing paclitaxel (1 mg/mL) and gelatin (100 mg/mL; PSK gelatin produced by Nippi Inc.) was coated on a polypropylene dish (2 cm×2 cm×500 μm), followed by drying at an ordinary temperature for 15 hours. Thus, a paclitaxel-containing gelatin film was produced.
Upon observation with a stereo microscope (produced by Leica, MZ16A), precipitation of paclitaxel was not observed. […] In addition, the gel produced with HFIP and subjected to crosslinking with transglutaminase and water swelling was transparent.
Observation was carried out in the same manner as in Example 2.
Drug-containing gelatin films were produced in the same manner as in Example 1 except that paclitaxel used in Example 1 was replaced by drugs with concentrations listed in Table 1 below. Observation was carried out in the same manner as in Example 2. […]

The nature of data set [2]: Solubility in 1,1,1,3,3,3-hexafluoro-2-propanol (HFIP). The note with it: for solubility: 1,1,1,3,3,3-hexafluoro-2-propanol (HFIP), organic solvent or mixture, thermodynamic from solid. On the procedure:
The solubility in hexafluoroisopropanol is determined as described below according to the present invention. A mixture is prepared by adding a compound to 1,1,1-3,3,3-hexafluoro-2-propanol while changing the concentration of the compound in a stepwise manner, and the concentration at which precipitation takes place is examined. Thus, the solubility of the compound in 1,1,1-3,3,3-hexafluoro-2-propanol is determined. In addition, a soluble/insoluble state is determined by confirming the presence of a deposit after centrifugation of the above mixture with a micro centrifuge (Chibitan II XX42CF00T produced by Tech-Jam) for 20 seconds.

Where [3] appears, read: upper dissolution limit - lower precipitation limit, samples at 30, 50, 100, 200, 500 mg/ml.

≈ marks a conversion by molar mass, not a printed value. Where two headings read alike, the source gives them in different places.

`CC(=O)Oc1ccccc1C(=O)O` [Aspirin]: in data set [1], the “State of drug in gelatin film, Drug/gelatin mass proportion 0.1%” value (“State … Drug/gelatin mass proportion 0.1%” for short) is “∘”; the “State of drug in gelatin film, Drug/gelatin mass proportion 1.0%” value (“State … Drug/gelatin mass proportion 1.0%” below) is on record as “∘”; the “State of drug in gelatin film, Drug/gelatin mass proportion 5.0%” value (shortened to “State … Drug/gelatin mass proportion 5.0%”) is listed as “∘”. For the same compound, the solubility in data set [2] was 200 to 500 mg/mL (≈ 1110 to 2780 mM).
For the compound `CC12CCC(C(=O)C1=O)C2(C)C` (centres unmarked) [Camphorquinone], in data set [1], the “State … Drug/gelatin mass proportion 0.1%” value was “∘”; the “State … Drug/gelatin mass proportion 1.0%” value is “∘”; the “State … Drug/gelatin mass proportion 5.0%” value is “∘”. The solubility in data set [2] lay in the range of 200 to 500 mg/mL (≈ 1200 to 3010 mM).
As for `CCN(CC)c1ccc2c(C)cc(=O)oc2c1` [Coumarin 1], in data set [1], the “State … Drug/gelatin mass proportion 0.1%” value was “∘”; the “State … Drug/gelatin mass proportion 1.0%” value was “∘”; the “State … Drug/gelatin mass proportion 5.0%” value was “∘”. Further, the “Solubility in HFIP” value in data set [2] (setting [3]) was 200 to 500 mg/mL.
Turning to `CCN(CC)c1ccc2cc(-c3nc4ccccc4s3)c(=O)oc2c1` [Coumarin 6], in data set [1], the “State … Drug/gelatin mass proportion 0.1%” value is listed as “∘”; the “State … Drug/gelatin mass proportion 1.0%” value is on record as “Precipitated”; the “State … Drug/gelatin mass proportion 5.0%” value is given as “Precipitated”. Further, the “Solubility in HFIP” value in data set [2] was 30 to 50 mg/mL.
As for `CC(=O)O[C@@]12CO[C@@H]1C[C@H](O)[C@@]1(C)C(=O)[C@H](O)C3=C(C)[C@@H](OC(=O)[C@H](O)[C@@H](NC(=O)OC(C)(C)C)c4ccccc4)C[C@@](O)([C@@H](OC(=O)c4ccccc4)[C@H]21)C3(C)C` [Docetaxel], in data set [1], the “State … Drug/gelatin mass proportion 0.1%” value was “∘”; the “State … Drug/gelatin mass proportion 1.0%” value was “∘”; the “State … Drug/gelatin mass proportion 5.0%” value was “∘”. Besides, the solubility in data set [2] is 100 to 200 mg/mL (≈ 124 to 248 mM).
Take `CN(C)c1ccc(N=Nc2ccccc2)cc1` [Methyl yellow]: in data set [1], the “State … Drug/gelatin mass proportion 0.1%” value is reported as “∘”; the “State … Drug/gelatin mass proportion 1.0%” value is “∘”; the “State … Drug/gelatin mass proportion 5.0%” value is “Precipitated”. For the same compound, the “Solubility in HFIP” value in data set [2] (setting [3]) is 50 to 100 mg/mL.
Take `CC(=O)O[C@H]1C(=O)[C@@]2(C)[C@H]([C@H](OC(=O)c3ccccc3)[C@]3(O)C[C@H](OC(=O)[C@H](O)[C@@H](NC(=O)c4ccccc4)c4ccccc4)C(C)=C1C3(C)C)[C@]1(OC(C)=O)CO[C@@H]1C[C@@H]2O` [Paclitaxel]: in data set [1], the “State … Drug/gelatin mass proportion 0.1%” value is listed as “∘”; the “State … Drug/gelatin mass proportion 1.0%” value is “∘”; the “State … Drug/gelatin mass proportion 5.0%” value is on record as “∘”. Moreover, the solubility in data set [2] lay in the range of 200 to 500 mg/mL (≈ 234 to 586 mM). Also, the “Solubility in HFIP” value in data set [2] (setting [3]) fell in the range of 200 to 500 mg/mL.
As for `O=C1NC(=O)C(c2ccccc2)(c2ccccc2)N1` [Phenytoin], in data set [1], the “State … Drug/gelatin mass proportion 0.1%” value is reported as “∘”; the “State … Drug/gelatin mass proportion 1.0%” value is listed as “∘”; the “State … Drug/gelatin mass proportion 5.0%” value is listed as “Precipitated”. In data set [2], the solubility lay in the range of 50 to 100 mg/mL (≈ 198 to 396 mM).
As to `CO[C@H]1C[C@@H]2CC[C@@H](C)[C@@](O)(O2)C(=O)C(=O)N2CCCC[C@H]2C(=O)O[C@H]([C@H](C)C[C@@H]2CC[C@@H](O)[C@H](OC)C2)CC(=O)[C@H](C)/C=C(\C)[C@@H](O)[C@@H](OC)C(=O)[C@H](C)C[C@H](C)/C=C/C=C/C=C/1C` [Rapamycin], the solubility in data set [2] lay in the range of 200 to 500 mg/mL (≈ 219 to 547 mM).
Regarding `C=C1CC[C@H](O)C/C1=C/C=C1\CCC[C@]2(C)[C@@H]([C@H](C)CCCC(C)C)CC[C@@H]12` [Vitamin D3], in data set [1], the “State … Drug/gelatin mass proportion 0.1%” value is given as “∘”; the “State … Drug/gelatin mass proportion 1.0%” value is “∘”; the “State … Drug/gelatin mass proportion 5.0%” value is on record as “∘”. Also, in data set [2] (setting [3]), the “Solubility in HFIP” value is 200 to 500 mg/mL.
